Patent US20030109568A1 (CHEIL JEDANG Corporation, priority 2001, published 2003)

Key:
[1] = molecular target: T1, cyclooxygenase-1 (Mus musculus, UniProt P22437); assay: Cyclooxygenase-1 inhibition in mouse peritoneal macrophages (PGE2 ELISA); assay type: cell-based; details: for Inhibitory effects of cyclooxygenase (COX), COX-1: mouse peritoneal macrophages
T1 construct: endogenous in cells; host or cells: primary mouse peritoneal macrophages (unstimulated)
T1 sequence (P22437 27-602): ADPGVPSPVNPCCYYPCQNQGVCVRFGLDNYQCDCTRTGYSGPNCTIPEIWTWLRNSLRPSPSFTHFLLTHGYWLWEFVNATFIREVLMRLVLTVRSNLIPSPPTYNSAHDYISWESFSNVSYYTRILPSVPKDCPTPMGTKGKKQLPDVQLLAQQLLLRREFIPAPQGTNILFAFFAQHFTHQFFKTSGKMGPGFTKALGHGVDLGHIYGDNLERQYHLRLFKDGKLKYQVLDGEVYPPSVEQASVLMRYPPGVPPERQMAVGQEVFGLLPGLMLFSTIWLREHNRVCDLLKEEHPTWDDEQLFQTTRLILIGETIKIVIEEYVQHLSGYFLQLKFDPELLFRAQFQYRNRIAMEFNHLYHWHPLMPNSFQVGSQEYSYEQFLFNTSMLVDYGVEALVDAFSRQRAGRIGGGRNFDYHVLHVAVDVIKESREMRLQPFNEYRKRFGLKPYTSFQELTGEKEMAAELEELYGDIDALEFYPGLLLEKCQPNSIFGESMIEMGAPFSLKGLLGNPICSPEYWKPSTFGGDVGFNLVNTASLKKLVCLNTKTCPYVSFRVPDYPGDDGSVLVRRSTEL
Procedure: First of all, the cyclooxygenase-1 was examined through the following procedure.
Peritoneal fluid in which macrophages were suspended was extracted from a mouse peritoneal cavity and centrifuged at 4° C., 1,000 rpm for 2 minutes. Then, the supernatant was removed, suspended with 20 ml of incomplete RPMI medium [PC/SM (penicilin/streptomycin)] and again centrifuged under the same condition. […] Then, the cell number was calculated with the hemocytometer and adjusted to reach 1×10^6 cells/ml of cell concentration in the final cell suspension. 100 μl of the resulting suspension was transferred into each well of 96-well plate and left at 37° C. in 5% CO2 with the incubator for about 2 hours in order to attach macrophages. […] The resulting cell was cultivated in the incubator at 37° C. in 5% CO2 for about 12˜16 hours. Then, arachidonic acid was added, adjusting to 10 μM of a final concentration and incubated at 37° C. for more 10 minutes and the supernatant of the reacted solution (˜180 μl) was recovered to finish the reaction.

[2] = molecular target: T2, cyclooxygenase-2 (Mus musculus, UniProt Q05769); assay: Cyclooxygenase-2 inhibition in aspirin-treated, LPS-stimulated mouse peritoneal macrophages (PGE2 ELISA); assay type: cell-based; details: for Inhibitory effects of cyclooxygenase (COX), COX-2: LPS-stimulated mouse peritoneal macrophages
T2 construct: Peritoneal fluid suspended with macrophages was extracted from a mouse peritoneal cavity; endogenous in cells; host or cells: primary mouse peritoneal macrophages, pretreated with 500 µM aspirin and stimulated with 10 µg/ml LPS
T2 sequence (Q05769 18-604): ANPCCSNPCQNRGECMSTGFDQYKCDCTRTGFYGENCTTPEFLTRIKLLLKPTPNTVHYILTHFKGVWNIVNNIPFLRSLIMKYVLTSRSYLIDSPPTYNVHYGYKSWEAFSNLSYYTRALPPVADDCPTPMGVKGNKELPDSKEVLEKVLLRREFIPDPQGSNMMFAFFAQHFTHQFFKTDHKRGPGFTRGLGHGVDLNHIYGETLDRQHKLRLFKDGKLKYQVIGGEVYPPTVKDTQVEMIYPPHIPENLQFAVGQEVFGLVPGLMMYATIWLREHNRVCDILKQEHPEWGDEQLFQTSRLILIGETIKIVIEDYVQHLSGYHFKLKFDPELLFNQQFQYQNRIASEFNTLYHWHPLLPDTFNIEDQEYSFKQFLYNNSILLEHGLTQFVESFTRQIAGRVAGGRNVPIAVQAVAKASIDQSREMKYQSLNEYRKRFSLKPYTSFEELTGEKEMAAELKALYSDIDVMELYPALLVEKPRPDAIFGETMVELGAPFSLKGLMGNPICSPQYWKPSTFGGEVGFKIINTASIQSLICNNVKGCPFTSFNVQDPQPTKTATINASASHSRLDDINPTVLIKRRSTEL
Procedure: Second, the cyclooxygenase-2 was examined through the following procedure.
Peritoneal fluid suspended with macrophages was extracted from a mouse peritoneal cavity and centrifuged at 4° C., 1,000 rpm for 2 minutes. Then, the supernatant was removed, suspended using incomplete RPMI medium [PC/SM (penicilin/streptomycin)] and again centrifuged under the same condition. […] Then, the cell number was calculated with the hemocytometer and adjusted to reach 1×10^6 cells/ml of cell concentration in the final cell suspension. The resulting suspension was treated with aspirin, adjusting 500 μM of final concentration and transderred into each well of 96-well plate in 100 μl respectively. Again, it was left at 37° C. in 5% CO2 in the incubator for about 2 hours in order to attach macrophages. […] The resulting cell was cultivated in the incubator at 37° C. in 5% CO2 for about 12˜16 hours. Then, arachidonic acid was added, adjusting to 10 μM of a final concentration and incubated at 37° C. for more 10 minutes and the supernatant of the reacted solution (˜180 μl) was recovered to finish the reaction.

[3] = compared with comparative substance

SMILES | Inhibitory effects of cyclooxygenase (COX), COX-1 ([1]; 3 μM) [% inhibition] | Inhibitory effects of cyclooxygenase (COX), COX-1 ([1]; 10 μM) [% inhibition] | Inhibitory effects of cyclooxygenase (COX), COX-1 ([1]; 30 μM) [% inhibition] | Inhibitory effects of cyclooxygenase (COX), COX-2 ([2]; 30 nM) | Inhibitory effects of cyclooxygenase (COX), COX-2 ([2]; 100 nM) | Inhibitory effects of cyclooxygenase (COX), COX-2 ([2]; 300 nM) | inhibition effect against cyclooxygenase-1 (in words) [1, 3] | selectivity of cyclooxygenase-2 (in words) ([2]; COX-2 versus COX-1) | inhibition effect against cyclooxygenase-2 (in words) [2, 3]
CS(=O)(=O)Nc1ccc2c(ccn2Cc2ccc(F)cc2)c1 [Example 8, N-[1-(4-fluoro-benzyl)-1H-indole-5-yl]-methansulfonamide] | 7.6 | 32.3 | 53.9 | 22.1 % inhibition | 28.6 % inhibition | 29.6 % inhibition | – | – | –
CS(=O)(=O)Nc1ccc2c(ccn2Cc2ccccc2)c1 [Example 7, N-(1-benzyl-1H-indole-5-yl)-methanesulfonamide] | 30.0 | 44.1 | 56.4 | 59.8 % inhibition | 70.6 % inhibition | 76.8 % inhibition | in much lower level than a comparative substance | better than any other substances | more excellent than a comparative substance
O=C(c1ccccc1)n1ccc2cc([N+](=O)[O-])ccc21 [Example 1, 1-benzoyl-5-nitro-1H-indole] | 33.2 | 40.7 | 45.8 | ˜0 % inhibition | ˜0 % inhibition | ˜0 % inhibition | – | – | –
CC(C)c1ccc(Cn2ccc3cc([N+](=O)[O-])ccc32)cc1 [Example 5, 1-(4-isopropyl-benzyl)-5-nitro-1H-indole] | 39.9 | 47.1 | 54.3 | 51.2 % inhibition | 55.4 % inhibition | 61.4 % inhibition | – | – | –
CS(=O)(=O)Nc1ccc2c(ccn2C(=O)c2ccccc2)c1 [Example 9, N-(1-benzoyl-1H-indole-5-yl)-methanesulfonamide] | 22.8 | 31.1 | 42.1 | 20.4 % inhibition | 25.5 % inhibition | 30.1 % inhibition | – | – | –
O=[N+]([O-])c1ccc2c(ccn2Cc2ccccc2)c1 [Example 2, 1-benzyl-5-nitro-1H-indole] | 56.7 | 68.7 | 80.4 | 15.7 % inhibition | 20.7 % inhibition | 22.0 % inhibition | – | – | –
O=[N+]([O-])c1ccc2c(ccn2Cc2ccc(F)cc2)c1 [Example 3, 1-(4-fluoro-benzyl)-5-nitro-1H-indole] | 60.4 | 64.4 | 74.6 | 50.1 % inhibition | 58.8 % inhibition | 70.2 % inhibition | – | – | –
Nc1ccc2c(ccn2C(=O)c2ccccc2)c1 [Example 6, 1-benzoyl-5-amino-1H-indole] | 52.3 | 57.3 | 64.8 | 33.4 % inhibition | 46.6 % inhibition | 54.9 % inhibition | – | – | –
COc1ccc(Cn2ccc3cc([N+](=O)[O-])ccc32)cc1 [Example 4, 1-(4-methoxy-benzyl)-5-nitro-1H-indole] | 60.3 | 71.1 | 80.1 | 55.4 % inhibition | 69.9 % inhibition | 81.5 % inhibition | – | – | –
